Measured values reported in patent US9695155B2, “Herbicidal substituted pyrimidinyloxy benzene compounds” (E. I. DU PONT DE NEMOURS AND COMPANY, priority 2013, dated 2017).

Experiments:
[1] = test system: barnyardgrass; experiment: Test A postemergence; assay type: in vivo, Echinochloa crus-galli
Procedure, shortened: (§1)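 Visual 0–100 rating (100 = complete control) taken about 10 d post-treatment relative to untreated checks. Preemergence: directed soil spray on sown loam/sand pots. Postemergence: seedlings 2–10 cm, 1–2 leaf. Non-phytotoxic solvent formulation with surfactant.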

[2] = test system: corn; experiment: Test A postemergence; assay type: in vivo, Zea mays
Procedure, shortened: as §1

[3] = test system: giant foxtail; experiment: Test A preemergence; assay type: in vivo, Setaria faberii; details: for Plant response rating, Foxtail, Giant: 125 g ai/ha, 0 to 100 scale where 0 is no effect and 100 is complete control; for Foxtail, Giant plant response rating: 500 g ai/ha, 0 to 100 scale, 0 no effect, 100 complete control, approx. 10 days
Procedure, shortened: as §1

[4] = test system: large (Lg) crabgrass; experiment: Test A preemergence; assay type: in vivo, Digitaria sanguinalis; details: for Plant response rating, Crabgrass, Large: 125 g ai/ha, 0 to 100 scale where 0 is no effect and 100 is complete control; for Crabgrass, Large plant response rating: 500 g ai/ha, 0 to 100 scale, 0 no effect, 100 complete control, approx. 10 days
Procedure, shortened: as §1

[5] = test system: pigweed; experiment: Test A postemergence; assay type: in vivo, Amaranthus retroflexus
Procedure, shortened: as §1

[6] = test system: Heteranthera limosa; experiment: Test B flooded paddy test; assay type: in vivo; details: Flood, 250 g ai/ha; 0 to 100 scale where 0 is no effect and 100 is complete control
Procedure, shortened: (§2)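 2-leaf stage plants; pots flooded to 3 cm, compound added to paddy water, depth maintained. Greenhouse 13–15 d. Visual rating vs untreated controls, 0 (no effect) to 100 (complete control); dash = no result.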

[7] = test system: velvetleaf; experiment: Test A preemergence; assay type: in vivo, Abutilon theophrasti; details: for Plant response rating, Velvetleaf: 125 g ai/ha, 0 to 100 scale where 0 is no effect and 100 is complete control; for Velvetleaf plant response rating: 500 g ai/ha, 0 to 100 scale, 0 no effect, 100 complete control, approx. 10 days
Procedure, shortened: as §1

[8] = test system: wheat; experiment: Test A postemergence; assay type: in vivo, Triticum aestivum
Procedure, shortened: as §1

[9] = test system: morningglory; experiment: Test A preemergence; assay type: in vivo, Ipomoea spp.; details: for Plant response rating, Morningglory: 125 g ai/ha, 0 to 100 scale where 0 is no effect and 100 is complete control; for Morningglory plant response rating: 500 g ai/ha, 0 to 100 scale, 0 no effect, 100 complete control, approx. 10 days
Procedure, shortened: as §1

[10] = test system: large (Lg) crabgrass; experiment: Test A postemergence; assay type: in vivo, Digitaria sanguinalis
Procedure, shortened: as §1

[11] = test system: giant foxtail; experiment: Test A postemergence; assay type: in vivo, Setaria faberii
Procedure, shortened: as §1

[12] = test system: rice; experiment: Test B flooded paddy test; assay type: in vivo, Oryza sativa; details: Flood, 250 g ai/ha; 0 to 100 scale where 0 is no effect and 100 is complete control
Procedure, shortened: as §2

[13] = test system: corn; experiment: Test A preemergence; assay type: in vivo, Zea mays; details: for Plant response rating, Corn: 125 g ai/ha, 0 to 100 scale where 0 is no effect and 100 is complete control; for Corn plant response rating: 500 g ai/ha, 0 to 100 scale, 0 no effect, 100 complete control, approx. 10 days
Procedure, shortened: as §1

[14] = test system: morningglory; experiment: Test A postemergence; assay type: in vivo, Ipomoea spp.
Procedure, shortened: as §1

[15] = test system: barnyardgrass; experiment: Test A preemergence; assay type: in vivo, Echinochloa crus-galli; details: for Plant response rating, Barnyardgrass: 125 g ai/ha, 0 to 100 scale where 0 is no effect and 100 is complete control; for Barnyardgrass plant response rating: 500 g ai/ha, 0 to 100 scale, 0 no effect, 100 complete control, approx. 10 days
Procedure, shortened: as §1

[16] = test system: wheat; experiment: Test A preemergence; assay type: in vivo, Triticum aestivum; details: for Plant response rating, Wheat: 125 g ai/ha, 0 to 100 scale where 0 is no effect and 100 is complete control; for Wheat plant response rating: 500 g ai/ha, 0 to 100 scale, 0 no effect, 100 complete control, approx. 10 days
Procedure, shortened: as §1

[17] = test system: barnyardgrass; experiment: Test B flooded paddy test; assay type: in vivo, Echinochloa crus-galli; details: Flood, 250 g ai/ha; 0 to 100 scale where 0 is no effect and 100 is complete control
Procedure, shortened: as §2

[18] = test system: pigweed; experiment: Test A preemergence; assay type: in vivo, Amaranthus retroflexus; details: for Plant response rating, Pigweed: 125 g ai/ha, 0 to 100 scale where 0 is no effect and 100 is complete control; for Pigweed plant response rating: 500 g ai/ha, 0 to 100 scale, 0 no effect, 100 complete control, approx. 10 days
Procedure, shortened: as §1

[19] = test system: sedge, umbrella; experiment: Test B flooded paddy test; assay type: in vivo, Cyperus difformis; details: Flood, 250 g ai/ha; 0 to 100 scale where 0 is no effect and 100 is complete control
Procedure, shortened: as §2

[20] = test system: velvetleaf; experiment: Test A postemergence; assay type: in vivo, Abutilon theophrasti
Procedure, shortened: as §1

[21] = 125 g ai/ha, 0 to 100 scale where 0 is no effect and 100 is complete control
[22] = 500 g ai/ha, 0 to 100 scale, 0 no effect, 100 complete control

Row | SMILES | Plant response rating, Barnyardgrass [1, 21] | Plant response rating, Barnyardgrass [1, 22] | Plant response rating, Corn [2, 21] | Plant response rating, Corn [2, 22] | Plant response rating, Foxtail, Giant [3] | Foxtail, Giant plant response rating [3] | Plant response rating, Crabgrass, Large [4] | Crabgrass, Large plant response rating [4] | Plant response rating, Pigweed [5, 21] | Plant response rating, Pigweed [5, 22] | Plant response rating, Ducksalad [6] | Plant response rating, Velvetleaf [7] | Velvetleaf plant response rating [7] | Plant response rating, Wheat [8, 21] | Plant response rating, Wheat [8, 22] | Plant response rating, Morningglory [9] | Morningglory plant response rating [9] | Plant response rating, Crabgrass, Large [10, 21] | Plant response rating, Crabgrass, Large [10, 22] | Plant response rating, Foxtail, Giant [11, 21] | other results
1 | N#Cc1cccc(Oc2ncc(I)cn2)c1-n1cc(Br)cn1 [Compound 60] | 20 | 50 | 0 | 30 | 20 | 90 | 40 | 100 | 50 | 100 | 0 | 0 | 40 | 0 | 10 | 0 | 0 | 10 | 70 | 20 | Plant response rating, Foxtail, Giant [11, 22]: 80; Plant response rating, Rice [12]: 0; Plant response rating, Corn [13]: 0; Corn plant response rating [13]: 0; Plant response rating, Morningglory [14, 21]: 10; Plant response rating, Morningglory [14, 22]: 50; Plant response rating, Barnyardgrass [15]: 0; Barnyardgrass plant response rating [15]: 70; Plant response rating, Wheat [16]: 0; Wheat plant response rating [16]: 0; Plant response rating, Barnyardgrass [17]: 0; Plant response rating, Pigweed [18]: 30; Pigweed plant response rating [18]: 100; Plant response rating, Sedge, Umbrella [19]: 0; Plant response rating, Velvetleaf [20, 21]: 50; Plant response rating, Velvetleaf [20, 22]: 100
2 | O=Cc1cccc(Oc2ncc(Cl)cn2)c1-n1cc(Br)cn1 [Compound 61] | 0 | 0 | 0 | 0 | 0 | 0 | 0 | 20 | 0 | 0 | 0 | 0 | 0 | 0 | 0 | 0 | 0 | 0 | 0 | 0 | Plant response rating, Foxtail, Giant [11, 22]: 0; Plant response rating, Rice [12]: 0; Plant response rating, Corn [13]: 0; Corn plant response rating [13]: 0; Plant response rating, Morningglory [14, 21]: 0; Plant response rating, Morningglory [14, 22]: 0; Plant response rating, Barnyardgrass [15]: 0; Barnyardgrass plant response rating [15]: 20; Plant response rating, Wheat [16]: 0; Wheat plant response rating [16]: 0; Plant response rating, Barnyardgrass [17]: 0; Plant response rating, Pigweed [18]: 0; Pigweed plant response rating [18]: 30; Plant response rating, Sedge, Umbrella [19]: 0; Plant response rating, Velvetleaf [20, 21]: 20; Plant response rating, Velvetleaf [20, 22]: 30
